{"source": "patent US11122797B2", "about": "“Pest repellent material” (JGC CATALYSTS AND CHEMICALS LTD., priority 2017, dated 2021)", "origin": "cited, not measured here", "conditions": "within 6 hours"}
{"smiles": "CCN(CC)C(=O)c1cccc(C)c1", "note": "[DEET, N, N-diethyl-m-toluamide]", "values": [{"measurement": "DEET applied to the skin transdermally absorbed", "result": "about 50%"}]}
